Assay results as given in US9034794B2, “Method for post-emergence crabgrass control” (FMC Corporation, priority 2007, dated 2015).

System: Crabgrass (Digitaria sp.)
Assay: Post-emergence control of crabgrass in greenhouse pots, application at the 1-2 leaf growth stage
Assay type: in vivo
Description: The compositions of the present invention were tested for herbicidal efficacy in the following manner:
For post-emergence testing, three disposable 3 inch square pots for each rate of application of each herbicide solution were filled with a soil, comprised of peat moss, vermiculite, bark ash, pine bark, limestone and a wetting agent (Metro Mix® 360 artificial soil, Scotts Company, Marysville, Ohio), to which about 20 to 30 crabgrass seeds (Digitaria sp.) seeds were planted. The pots were placed in a greenhouse and watered daily, thus allowing the seeds to germinate and the foliage to develop for 11 days, until the crabgrass was at the 1-2 leaf growth stage.
Pots designated for treatment were placed on a conveyor belt and the conveyor belt fed under a spray nozzle mounted about ten inches above the postemergent foliage. The spray of herbicidal solution was commenced and once stabilized; the pots were passed under the spray at a speed to receive a coverage equivalent of 30 gallons per acre. The application rates are those shown in Table 1 below for the individual herbicidal solutions and the herbicide compositions of the present invention. The post-emergence pots were immediately placed in the green-house and not watered for 24 hours after treatment. Thereafter they were regularly watered at ground level. The control of crabgrass was evaluated in each experimental test from 1 to 22 days after treatment (DAT). The results, shown as an average of the replications, were compared with results observed in untreated control pots in the same tests. All test treatments contained 0.25% (by volume) of a non-ionic surfactant.
Percent control was determined by comparing the treated plants to the untreated control using the following rating system:
The results, shown as an average of the replications, were compared with results observed in untreated control plots in the same trials.

SMILES: Cc1nn(-c2cc(NS(C)(=O)=O)c(Cl)cc2Cl)c(=O)n1C(F)F [A, N-[2,4-dichloro-5-[4-(difluoromethyl)-4,5-dihydro-3-methyl-5-oxo-1H-1,2,4-triazol-1-yl]phenyl]methanesulfonamide]
- Average % control (0.25 lb AI/Acre, 1 DAT): 20%
- Average % control (0.25 lb AI/Acre, 3 DAT): 20%
- Average % control (0.25 lb AI/Acre, 7 DAT): 5%
- Average % control (0.25 lb AI/Acre, 14 DAT): 0%
- Average % control (0.25 lb AI/Acre, 22 DAT): 0%
- Average % control (0.375 lb AI/Acre, 1 DAT): 10%
- Average % control (0.375 lb AI/Acre, 3 DAT): 25%
- Average % control (0.375 lb AI/Acre, 7 DAT): 10%
- Average % control (0.375 lb AI/Acre, 14 DAT): 0%
- Average % control (0.375 lb AI/Acre, 22 DAT): 0%

SMILES: CCCN(CCC)c1c([N+](=O)[O-])cc(C(F)(F)F)c(N)c1[N+](=O)[O-] [B, 2,4-dinitro-N^3,N^3-dipropyl-6-(trifluoromethyl)-1,3-benzenediamine]
- Average % control (0.75 lb AI/Acre, 1 DAT): 0%
- Average % control (0.75 lb AI/Acre, 3 DAT): 0%
- Average % control (0.75 lb AI/Acre, 7 DAT): 0%
- Average % control (0.75 lb AI/Acre, 14 DAT): 0%
- Average % control (0.75 lb AI/Acre, 22 DAT): 0%
